Consider 19 compounds from patent US20240173303A1, “1,2,5-Oxadiazoles As Inhibitors Of Indoleamine 2,3- Dioxygenase” (Incyte Corporation, priority 2008, published 2024).

Each structure is given as a SMILES string. Some results are limits rather than exact numbers.

In one test the target is Human indoleamine 2,3-dioxygenase (IDO) (Homo sapiens (Human), UniProt P14902). The test is described as follows: Human Indoleamine 2,3-Dioxygenase (IDO) Enzyme Assay. It counts as biochemical. To be noted: Table 2; assay of Example A; 95 nM IDO, 2 mM D-Trp, pH 6.5, room temperature. From the text: Human indoleamine 2,3-dioxygenase (IDO) with an N-terminal His tag was expressed in E. coli and purified to homogeneity. IDO catalyzes the oxidative cleavage of the pyrrole ring of the indole nucleus of tryptophan to yield N′-formylkynurenine.
Human indoleamine 2,3-dioxygenase (IDO), sequence (P14902 whole entry): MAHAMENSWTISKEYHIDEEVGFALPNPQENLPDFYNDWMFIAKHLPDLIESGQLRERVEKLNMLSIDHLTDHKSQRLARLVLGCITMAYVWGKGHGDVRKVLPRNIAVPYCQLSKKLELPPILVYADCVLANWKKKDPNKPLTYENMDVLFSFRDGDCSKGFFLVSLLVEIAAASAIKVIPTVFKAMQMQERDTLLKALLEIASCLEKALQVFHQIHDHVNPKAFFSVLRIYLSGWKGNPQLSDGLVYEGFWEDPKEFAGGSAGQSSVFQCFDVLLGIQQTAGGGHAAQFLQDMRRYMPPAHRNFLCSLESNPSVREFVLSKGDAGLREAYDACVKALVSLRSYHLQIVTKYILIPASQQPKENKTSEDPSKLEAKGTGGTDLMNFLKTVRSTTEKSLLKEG
`NS(=O)(=O)NCCCNc1nonc1C(=NO)Nc1ccc(F)c(Br)c1` [Example 3, 4-({3-[(Aminosulfonyl)amino]propyl}amino)-N-(3-bromo-4-fluorophenyl)-N′-hydroxy-1,2,5-oxadiazole-3-carboximidamide] came in with an IC50 of under 100 nM.

The compound `CS(=O)(=O)NCCCNc1nonc1C(=NO)Nc1ccc(F)c(Br)c1` [Example 4, N-(3-Bromo-4-fluorophenyl)-N′-hydroxy-4-({3-[(methylsulfonyl)amino]propyl}amino)-1,2,5-oxadiazole-3-carboximidamide] yielded a half-inhibitory concentration (IC50) of under 100 nM. Compound `NS(=O)(=O)NCCNc1nonc1C(=NO)Nc1ccc(F)c(Cl)c1` [Example 5, 4-({2-[(Aminosulfonyl)amino]ethyl}amino)-N-(3-chloro-4-fluorophenyl)-N′-hydroxy-1,2,5-oxadiazole-3-carboximidamide] yielded an IC50 of under 200 nM.

In turn, `CS(=O)(=O)NCCNc1nonc1C(=NO)Nc1ccc(F)c(Cl)c1` [Example 6, N-(3-Chloro-4-fluorophenyl)-N′-hydroxy-4-({2-[(methylsulfonyl)amino]ethyl}amino)-1,2,5-oxadiazole-3-carboximidamide] registered an IC50 of under 200 nM. As for `NS(=O)(=O)NCCCNc1nonc1C(=NO)Nc1ccc(F)c(Cl)c1` [Example 7, 4-({3-[(Aminosulfonyl)amino]propyl}amino)-N-(3-chloro-4-fluorophenyl)-N′-hydroxy-1,2,5-oxadiazole-3-carboximidamide], the IC50 is under 200 nM. Still for that read-out and setting: to `CS(=O)(=O)NCCCNc1nonc1C(=NO)Nc1ccc(F)c(Cl)c1` [Example 8, N-(3-Chloro-4-fluorophenyl)-N′-hydroxy-4-({3-[(methylsulfonyl)amino]propyl}amino)-1,2,5-oxadiazole-3-carboximidamide] belongs under 200 nM.

`NS(=O)(=O)NCCNc1nonc1C(=NO)Nc1ccc(F)c(C(F)(F)F)c1` [Example 9, 4-({2-[(Aminosulfonyl)amino]ethyl}amino)-N-[4-fluoro-3-(trifluoromethyl)phenyl]-N′-hydroxy-1,2,5-oxadiazole-3-carboximidamide] displayed an IC50 of under 100 nM. `CS(=O)(=O)NCCNc1nonc1C(=NO)Nc1ccc(F)c(C(F)(F)F)c1` [Example 10, N-[4-Fluoro-3-(trifluoromethyl)phenyl]-N′-hydroxy-4-({2-[(methylsulfonyl)amino]ethyl}amino)-1,2,5-oxadiazole-3-carboximidamide] gave an IC50 of under 100 nM. `NS(=O)(=O)NCCCNc1nonc1C(=NO)Nc1ccc(F)c(C(F)(F)F)c1` [Example 11, 4-({3-[(Aminosulfonyl)amino]propyl}amino)-N-[4-fluoro-3-(trifluoromethyl)phenyl]-N′-hydroxy-1,2,5-oxadiazole-3-carboximidamide] showed an IC50 of under 100 nM. Compound `CS(=O)(=O)NCCCNc1nonc1C(=NO)Nc1ccc(F)c(C(F)(F)F)c1` [Example 12, N-[4-Fluoro-3-(trifluoromethyl)phenyl]-N′-hydroxy-4-({3-[(methylsulfonyl)amino]propyl}amino)-1,2,5-oxadiazole-3-carboximidamide] had an IC50 of under 100 nM. The same measure, in the same setting: as for `NS(=O)(=O)NCCNc1nonc1C(=NO)Nc1cccc(C(F)(F)F)c1` [Example 13, 4-({2-[(Aminosulfonyl)amino]ethyl}amino)-N′-hydroxy-N-[3-(trifluoromethyl)phenyl]-1,2,5-oxadiazole-3-carboximidamide], the figure is under 500 nM. As for `CS(=O)(=O)NCCNc1nonc1C(=NO)Nc1cccc(C(F)(F)F)c1` [Example 14, N′-Hydroxy-4-({2-[(methylsulfonyl)amino]ethyl}amino)-N-[3-(trifluoromethyl)phenyl]-1,2,5-oxadiazole-3-carboximidamide], the IC50 was under 200 nM. On the same count and under the same terms, to `NS(=O)(=O)NCCCNc1nonc1C(=NO)Nc1cccc(C(F)(F)F)c1` [Example 15, 4-({3-[(Aminosulfonyl)amino]propyl}amino)-N′-hydroxy-N-[3-(trifluoromethyl)phenyl]-1,2,5-oxadiazole-3-carboximidamide] belongs under 200 nM; to `CS(=O)(=O)NCCCNc1nonc1C(=NO)Nc1cccc(C(F)(F)F)c1` [Example 16, N′-Hydroxy-4-({3-[(methylsulfonyl)amino]propyl}amino)-N-[3-(trifluoromethyl)phenyl]-1,2,5-oxadiazole-3-carboximidamide], under 200 nM. Still for that read-out and setting: to `Cc1cc(NC(=NO)c2nonc2NCCNS(C)(=O)=O)ccc1F` [Example 17, N-(4-Fluoro-3-methylphenyl)-N′-hydroxy-4-({2-[(methylsulfonyl)amino]ethyl}amino)-1,2,5-oxadiazole-3-carboximidamide] belongs under 500 nM; to `N#Cc1cc(NC(=NO)c2nonc2NCCNS(N)(=O)=O)ccc1F` [Example 18, 4-({2-[(Aminosulfonyl)amino]ethyl}amino)-N-(3-cyano-4-fluorophenyl)-N′-hydroxy-1,2,5-oxadiazole-3-carboximidamide], under 750 nM. The same measure, in the same setting: as for `CS(=O)(=O)NCCNc1nonc1C(=NO)Nc1ccc(F)c(C#N)c1` [Example 19, N-(3-Cyano-4-fluorophenyl)-N′-hydroxy-4-({2-[(methylsulfonyl)amino]ethyl}amino)-1,2,5-oxadiazole-3-carboximidamide], the figure is under 500 nM.

The same test, now with this note: Table 3; assay of Example A; 95 nM IDO, 2 mM D-Trp, pH 6.5, room temperature.
`NS(=O)(=O)NCCNc1nonc1C(=NO)NCc1cc(Br)co1` [Example 20, 4-({2-[(Aminosulfonyl)amino]ethyl}amino)-N-[(4-bromo-2-furyl)methyl]-N′-hydroxy-1,2,5-oxadiazole-3-carboximidamide] yielded a 50% inhibitory concentration (IC50) of under 500 nM. `NS(=O)(=O)NCCNc1nonc1C(=NO)NCc1cc(Cl)co1` [Example 21, 4-({2-[(Aminosulfonyl)amino]ethyl}amino)-N-[(4-chloro-2-furyl)methyl]-N′-hydroxy-1,2,5-oxadiazole-3-carboximidamide] gave an IC50 of under 750 nM.
